Data from the NIST ThermoML archive (doi:10.1021/je500380x).

Experiment: mn = molality of the nth substance listed, in mol/kg
Conditions: 100 kPa, Liquid; for electrical conductivity: Alternating current cell with electrodes; for viscosity: Falling or rolling sphere viscometry; for mass density: Vibrating tube method

CCC(=O)OCCN1CCNCC1 [2-(piperazin-1-yl)ethyl propionate] + O
Conditions	electrical conductivity [S/m]	mass density [kg/m3]	viscosity [mPa·s]
293.15 K, m1 = 0.05	0.239	1000.1	1.031
293.15 K, m1 = 0.0999	0.436	1002.01	1.081
293.15 K, m1 = 0.1996	0.762	1005.79	1.172
293.15 K, m1 = 0.3	1.028	1009.71	1.247
293.15 K, m1 = 0.3997	1.25	1013.54	1.349
293.15 K, m1 = 0.5001	1.406	1017.42	1.464
293.15 K, m1 = 0.5992	1.56	1021.32	1.581
293.15 K, m1 = 0.6993	1.68	1025.14	1.726
293.15 K, m1 = 0.7997	1.77	1029.27	1.883
293.15 K, m1 = 0.9003	1.822	1033.09	2.075
293.15 K, m1 = 0.9988	1.85	1037.12	2.263
293.15 K, m1 = 1.199	1.86	1045.08	2.77
293.15 K, m1 = 1.402	1.8	1053.12	3.472
293.15 K, m1 = 1.6	1.68	1060.85	4.338
293.15 K, m1 = 1.802	1.523	1068.6	5.445
293.15 K, m1 = 1.998	1.35	1075.94	7.039
293.15 K, m1 = 2.2	1.16	1083.11	9.362
293.15 K, m1 = 2.402	0.955	1090.06	12.4
293.15 K, m1 = 2.6	0.779	1096.1	18.48
293.15 K, m1 = 2.798	0.595	1101.66	25.9
293.15 K, m1 = 3.002	0.461	1106.84	36.82
298.15 K, m1 = 0.05	0.267	998.94	0.92
298.15 K, m1 = 0.0999	0.486	1000.81	0.962
298.15 K, m1 = 0.1996	0.848	1004.54	1.039
298.15 K, m1 = 0.3	1.15	1008.41	1.103
298.15 K, m1 = 0.3997	1.4	1012.17	1.187
298.15 K, m1 = 0.5001	1.6	1015.99	1.289
298.15 K, m1 = 0.5992	1.76	1019.83	1.389
298.15 K, m1 = 0.6993	1.89	1023.57	1.51
298.15 K, m1 = 0.7997	2	1027.65	1.644
298.15 K, m1 = 0.9003	2.07	1031.4	1.805
298.15 K, m1 = 0.9988	2.12	1035.35	1.964
298.15 K, m1 = 1.199	2.13	1043.15	2.388
298.15 K, m1 = 1.402	2.06	1051.04	2.91
298.15 K, m1 = 1.6	1.94	1058.61	3.684
298.15 K, m1 = 1.802	1.76	1066.22	4.58
298.15 K, m1 = 1.998	1.57	1073.41	5.865
298.15 K, m1 = 2.2	1.36	1080.44	7.721
298.15 K, m1 = 2.402	1.16	1087.27	10.14
298.15 K, m1 = 2.6	0.931	1093.23	14.88
298.15 K, m1 = 2.798	0.738	1098.69	20.54
298.15 K, m1 = 3.002	0.578	1103.78	28.69
303.15 K, m1 = 0.05	0.296	997.53	0.828
303.15 K, m1 = 0.0999	0.538	999.38	0.864
303.15 K, m1 = 0.1996	0.941	1003.06	0.93
303.15 K, m1 = 0.3	1.28	1006.88	0.985
303.15 K, m1 = 0.3997	1.56	1010.59	1.058
303.15 K, m1 = 0.5001	1.78	1014.36	1.145
303.15 K, m1 = 0.5992	1.97	1018.15	1.232
303.15 K, m1 = 0.6993	2.11	1021.82	1.335
303.15 K, m1 = 0.7997	2.23	1025.85	1.45
303.15 K, m1 = 0.9003	2.31	1029.53	1.587
303.15 K, m1 = 0.9988	2.37	1033.42	1.722
303.15 K, m1 = 1.199	2.4	1041.09	2.079
303.15 K, m1 = 1.402	2.35	1048.83	2.519
303.15 K, m1 = 1.6	2.22	1056.27	3.163
303.15 K, m1 = 1.802	2.04	1063.74	3.903
303.15 K, m1 = 1.998	1.828	1070.79	4.953
303.15 K, m1 = 2.2	1.59	1077.7	6.458
303.15 K, m1 = 2.402	1.37	1084.44	8.415
303.15 K, m1 = 2.6	1.109	1090.28	12.17
303.15 K, m1 = 2.798	0.878	1095.67	16.6
303.15 K, m1 = 3.002	0.722	1100.68	22.77
308.15 K, m1 = 0.05	0.327	–	0.75
308.15 K, m1 = 0.0999	0.595	–	0.783
308.15 K, m1 = 0.1996	1.042	–	0.839
308.15 K, m1 = 0.3	1.416	–	0.887
308.15 K, m1 = 0.3997	1.729	–	0.951
308.15 K, m1 = 0.5001	1.97	–	1.027
308.15 K, m1 = 0.5992	2.19	–	1.102
308.15 K, m1 = 0.6993	2.36	–	1.19
308.15 K, m1 = 0.7997	2.49	–	1.292
308.15 K, m1 = 0.9003	2.59	–	1.407
308.15 K, m1 = 0.9988	2.66	–	–
308.15 K, m1 = 1.199	2.7	–	–
308.15 K, m1 = 1.402	2.65	–	–
308.15 K, m1 = 1.6	2.53	–	–
308.15 K, m1 = 1.802	2.33	–	–
308.15 K, m1 = 1.998	2.11	–	–
308.15 K, m1 = 2.2	1.85	–	–
308.15 K, m1 = 2.402	1.6	–	–
308.15 K, m1 = 2.6	1.305	–	–
308.15 K, m1 = 2.798	1.06	–	–
308.15 K, m1 = 3.002	0.848	–	–
